From patent US9458089B2, “Phenoxy alkyl diethanolamine and diisopropanolamine compounds for delivering active agents” (EMISPHERE TECHNOLOGIES, INC., priority 2012, dated 2016)
Structures can show the parent of a compound that is named as a salt.

Biological target: T1, hERG channels (Homo sapiens, UniProt Q12809)
T1 construct: expressed in transfected cells
Assay: hERG patch clamp on clone hERG channels in mammalian cells
Assay type: cell-based
Conditions: test article 1 μm, cisapride positive control, read-out: Experimental hERG Activity
Protocol: hERG activity was measured using a patch clamp method on clone hERG channels in mammalian cells. The concentration of test articles was 1 μm and a comparison was made to both a positive (cisapride) and negative (vehicle) control.

T1 sequence (Q12809 whole entry): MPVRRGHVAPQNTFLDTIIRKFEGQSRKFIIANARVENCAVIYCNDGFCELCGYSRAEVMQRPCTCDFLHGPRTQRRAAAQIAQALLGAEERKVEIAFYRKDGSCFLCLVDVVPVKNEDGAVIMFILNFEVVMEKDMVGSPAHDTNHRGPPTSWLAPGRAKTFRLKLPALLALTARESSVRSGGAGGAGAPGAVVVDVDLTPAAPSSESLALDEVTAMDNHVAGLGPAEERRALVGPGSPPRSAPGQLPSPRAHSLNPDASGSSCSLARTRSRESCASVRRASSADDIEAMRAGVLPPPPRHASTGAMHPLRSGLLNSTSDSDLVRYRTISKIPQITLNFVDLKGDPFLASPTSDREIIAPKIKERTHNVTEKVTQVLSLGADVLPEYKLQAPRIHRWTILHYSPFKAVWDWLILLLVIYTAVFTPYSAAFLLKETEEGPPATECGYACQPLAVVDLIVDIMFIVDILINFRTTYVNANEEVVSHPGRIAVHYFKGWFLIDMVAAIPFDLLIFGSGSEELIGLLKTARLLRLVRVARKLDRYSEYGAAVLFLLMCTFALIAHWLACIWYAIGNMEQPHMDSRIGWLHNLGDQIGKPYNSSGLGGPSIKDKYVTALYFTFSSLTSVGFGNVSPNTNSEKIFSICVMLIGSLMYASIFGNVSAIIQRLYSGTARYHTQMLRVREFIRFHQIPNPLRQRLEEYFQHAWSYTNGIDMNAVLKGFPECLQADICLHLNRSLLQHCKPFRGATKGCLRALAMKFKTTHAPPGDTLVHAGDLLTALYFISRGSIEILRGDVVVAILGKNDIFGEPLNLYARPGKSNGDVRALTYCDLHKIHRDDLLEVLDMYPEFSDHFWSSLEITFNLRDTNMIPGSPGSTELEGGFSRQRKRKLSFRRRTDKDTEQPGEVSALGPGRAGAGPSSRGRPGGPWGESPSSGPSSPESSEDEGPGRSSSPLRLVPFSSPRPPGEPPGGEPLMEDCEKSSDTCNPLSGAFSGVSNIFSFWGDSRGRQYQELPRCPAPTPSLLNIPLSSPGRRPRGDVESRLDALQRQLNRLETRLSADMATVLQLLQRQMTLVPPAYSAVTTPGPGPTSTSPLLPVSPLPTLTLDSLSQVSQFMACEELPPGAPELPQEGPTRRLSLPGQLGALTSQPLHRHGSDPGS

Row | SMILES | IC50 [µM]
1 | Cc1ccc(C)c(OCCCCCCCN(CCO)CCO)c1 | < 2
2 | Cc1ccc(C)c(OCCCCCCCN2CCOCC2)c1 | < 2
3 | OCCN(CCO)CCCCCCCCOc1ccccc1O | 2 to 5
4 | Cc1ccc(C)c(OCCCCCCN(CCO)CCO)c1 | < 2

System: not given
Assay: not given
Conditions: not given

Row | melting point [°C] | SMILES
5 | 95 to 97 | OCCN(CCO)CCCCCCOc1ccccc1O (as salt: hydrochloride) [Compound 2-HPHD, 6-(2-hydroxyphenoxyl)hexyldiethanolamine]
6 | 83 to 86 | Cc1ccc(F)c(OCCCCN(CCO)CCO)c1 (as salt: hydrochloride) [Compound 2-FPBD, 4-(2-fluoro-5-methylphenoxy)butyldiethanolamine]
